Measured values reported in PMC9425781, “Targeting integrin αvβ6 with gallium-68 tris (hydroxypyridinone) based PET probes” (Dalton Transactions (Cambridge, England : 2003), 2022).

Key:
αvβ6 = settings: cited from earlier work
Description: The two molecules 6 and 7 were conjugated to the nonapeptide cyclo-(FRGDLAFp(NMe)K)[29] (p = D-Pro; (NMe)K = N-methyl-Lys) under mild conditions, without the assistance of any activation agent, producing the two conjugates (11 and 12, Fig. 3). Noteworthy, the arginine-glycine-aspartate (RGD) sequence in cyclic peptides is known to selectively bind αv integrins. […] Moreover, the presence of the two non-proteinogenic amino acids, na ...

[1] = target: T1, integrin αvβ6 (pancreatic cancer BxPC-3 cells) (Homo sapiens, UniProt P06756+P18564); experiment: Competitive binding assay (gamma counting, unlabelled THP-peptide vs [68Ga]Ga-labelled peptide) on BxPC-3 cells; format: cell-based; settings: for Span (best-fit value): Std. Error 0.01175 (11), 0.04901 (12), 95% CI 0.04041 to 0.08849 (11), 0.1021 to 0.3002 (12); for log IC50: non-linear regression, GraphPad Prism 9, inhibitor 0.1-5000 nM, 1 h, 37 °C, n = 4, value ± as printed in method; for LogIC50 (best-fit value): Std. Error 0.1982 (11), 0.2904 (12), 95% CI -7.123 to -6.312 (11), -7.167 to -5.993 (12); for HillSlope (best-fit value): Std. Error 0.5820 (11), 0.3994 (12), 95% CI -2.429 to -0.04897 (11), -1.659 to -0.04442 (12)
T1 construct: endogenous in cells; host or cells: BxPC-3 pancreatic cancer cells
Description: Binding of [^68Ga]Ga-Integrin αvβ6-peptide-THP (11 and 12) to αvβ6 integrin was determined in the presence of increasing concentrations of unlabelled THP-peptide conjugate (Fig. 4).
BxPC-3 were plated in 12-well plates at a density of 5 × 10^5 cells per well in 1 mL of complete culture medium, cultured overnight at 37 °C and 5% CO2. Radiolabelling with ^68Ga was done as described above, and a solution containing 15 MBq in 1.0 mL was prepared by dilution with distilled H2O. Eleven inhibitor (unlabelled peptide) concentrations were tested to estimate the IC50 value at 0.1, 0.5, 1, 5, 10, 50, 100, 250, 500, 1000, and 5000 nM. Four wells were used for each concentration (n = 4), prepared in 500 μL of complete media. Following the addition of the inhibitor, 20 μL of the radiolabelled peptide solution was added to each well, corresponding to 300 kbq per well (33 nM of the labelled peptide per well). The cells were then incubated for an hour at the same above-mentioned conditions. Following incubation, media were removed from the wells, and the cells were washed twice with cold PBS (500 μL per washing). For each well, the media and the washings were collected together. After the second wash, 500 μL of 1 M NaOH solution was added to each well to lyse the cells, and cell lysates were retrieved 10 minutes later ([…]). A final wash with PBS (500 μL per well) was undertaken and collected in the same tube as the cell lysate. All tubes (containing either medium and washings or lysate and washings) were gamma-counted using a Wallac 1282 Compugamma Universal Gamma Counter. The resulting values were analyzed using Graphpad Prism 9 software, and a non-linear regression curve was generated, from which the IC50 values (log IC50: −6.72 ± 0.20 for 11 and −6.58 ± 0.29 for 12) were obtained.

[2] = binding curve, nonlinear regression

T1 sequence (P06756 31-889 limits assumed): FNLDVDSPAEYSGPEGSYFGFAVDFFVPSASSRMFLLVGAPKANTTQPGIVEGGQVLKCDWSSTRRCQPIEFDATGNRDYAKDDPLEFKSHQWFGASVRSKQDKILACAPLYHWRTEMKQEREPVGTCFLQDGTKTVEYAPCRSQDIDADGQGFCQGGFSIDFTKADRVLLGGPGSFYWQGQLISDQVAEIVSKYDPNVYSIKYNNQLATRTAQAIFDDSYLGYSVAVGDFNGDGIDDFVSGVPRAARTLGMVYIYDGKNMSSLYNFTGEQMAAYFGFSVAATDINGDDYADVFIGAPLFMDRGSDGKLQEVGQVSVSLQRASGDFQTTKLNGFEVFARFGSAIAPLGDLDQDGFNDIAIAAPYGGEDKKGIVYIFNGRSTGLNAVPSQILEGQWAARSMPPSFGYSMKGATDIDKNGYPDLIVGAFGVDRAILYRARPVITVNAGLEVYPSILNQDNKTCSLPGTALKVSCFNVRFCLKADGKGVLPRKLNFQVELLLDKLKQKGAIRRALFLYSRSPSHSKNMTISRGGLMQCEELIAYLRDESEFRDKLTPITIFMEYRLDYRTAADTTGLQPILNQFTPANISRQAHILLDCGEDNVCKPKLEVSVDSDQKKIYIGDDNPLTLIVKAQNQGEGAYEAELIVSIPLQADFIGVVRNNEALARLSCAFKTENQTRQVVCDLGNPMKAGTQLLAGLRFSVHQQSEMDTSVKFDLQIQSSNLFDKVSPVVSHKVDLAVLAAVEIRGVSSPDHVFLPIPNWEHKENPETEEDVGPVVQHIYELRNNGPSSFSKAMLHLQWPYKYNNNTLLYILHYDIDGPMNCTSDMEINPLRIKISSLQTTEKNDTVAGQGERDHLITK
T1 sequence (P06756 891-1048 partner limits assumed): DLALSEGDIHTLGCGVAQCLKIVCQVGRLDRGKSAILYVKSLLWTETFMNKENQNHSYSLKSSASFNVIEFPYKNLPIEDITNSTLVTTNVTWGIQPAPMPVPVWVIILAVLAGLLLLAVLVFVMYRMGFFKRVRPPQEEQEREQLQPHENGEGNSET
T1 sequence (P18564 22-788): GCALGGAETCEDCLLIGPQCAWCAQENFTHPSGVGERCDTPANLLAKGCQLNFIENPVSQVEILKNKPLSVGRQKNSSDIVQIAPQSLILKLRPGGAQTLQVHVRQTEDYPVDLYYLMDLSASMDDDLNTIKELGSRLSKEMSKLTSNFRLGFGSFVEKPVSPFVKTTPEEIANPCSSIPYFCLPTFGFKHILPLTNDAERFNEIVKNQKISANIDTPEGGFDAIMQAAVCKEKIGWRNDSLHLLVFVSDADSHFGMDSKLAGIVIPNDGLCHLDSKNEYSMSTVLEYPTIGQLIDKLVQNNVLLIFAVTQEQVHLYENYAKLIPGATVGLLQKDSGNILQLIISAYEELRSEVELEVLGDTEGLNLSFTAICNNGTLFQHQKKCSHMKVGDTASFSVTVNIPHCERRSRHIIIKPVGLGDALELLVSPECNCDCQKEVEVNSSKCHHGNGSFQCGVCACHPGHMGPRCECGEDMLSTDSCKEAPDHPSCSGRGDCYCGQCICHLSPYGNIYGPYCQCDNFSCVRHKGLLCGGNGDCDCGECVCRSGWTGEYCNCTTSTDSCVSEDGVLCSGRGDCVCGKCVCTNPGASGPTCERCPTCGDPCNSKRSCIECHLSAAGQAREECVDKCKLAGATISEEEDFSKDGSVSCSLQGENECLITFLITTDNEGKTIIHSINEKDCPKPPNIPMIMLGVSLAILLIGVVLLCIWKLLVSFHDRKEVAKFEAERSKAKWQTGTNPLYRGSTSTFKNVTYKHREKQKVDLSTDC

cyclo-(FRGDLAFp(NMe)K) (head to tail) [compound 10]
potency and selectivity for αvβ6 (in words) (αvβ6): potent and selective binder for αvβ6
IC50 (αvβ6; αvβ6): 0.26 nM

cyclo-(FRGDLAFp(NMe)K)-THPs (head to tail) [compound 11, cyclo-(FRGDLAFp(NMe)K) conjugated to THP-glutaric (6)]
Span (best-fit value) [1, 2]: 0.06445
log IC50 [1]: −6.72 ± 0.20
LogIC50 (best-fit value) ([1]; nonlinear regression): -6.717
HillSlope (best-fit value) ([1]; nonlinear regression): -1.239

cyclo-(FRGDLAFp(NMe)K)-THPs (head to tail) [compound 12, cyclo-(FRGDLAFp(NMe)K) conjugated to THP-adipic (7)]
Top (best-fit value) ([1]; binding curve, nonlinear regression, Std. Error 0.004453 (11), 0.01334 (12), 95% CI 0.1175 to 0.1358 (11), 0.2906 to 0.3446 (12)): 0.3176
Bottom (best-fit value) ([1]; binding curve, nonlinear regression, Std. Error 0.01017 (11), 0.04302 (12), 95% CI 0.04141 to 0.08300 (11), 0.02951 to 0.2034 (12)): 0.1165
Span (best-fit value) [1, 2]: 0.2012
log IC50 [1]: −6.58 ± 0.29
LogIC50 (best-fit value) ([1]; nonlinear regression): -6.580
HillSlope (best-fit value) ([1]; nonlinear regression): -0.8516
